Assay results published in ChEMBL document CHEMBL1138705, “Tetrahydroisoquinoline derivatives as melatonin MT2 receptor antagonists” (Bioorg Med Chem Lett, 2004).

Experiments:
[1] = target: T1, Melatonin receptor type 1B (Homo sapiens, UniProt P49286); assay: Inhibitory concentration against Melatonin receptor type 1B
T1 sequence (P49286 whole entry): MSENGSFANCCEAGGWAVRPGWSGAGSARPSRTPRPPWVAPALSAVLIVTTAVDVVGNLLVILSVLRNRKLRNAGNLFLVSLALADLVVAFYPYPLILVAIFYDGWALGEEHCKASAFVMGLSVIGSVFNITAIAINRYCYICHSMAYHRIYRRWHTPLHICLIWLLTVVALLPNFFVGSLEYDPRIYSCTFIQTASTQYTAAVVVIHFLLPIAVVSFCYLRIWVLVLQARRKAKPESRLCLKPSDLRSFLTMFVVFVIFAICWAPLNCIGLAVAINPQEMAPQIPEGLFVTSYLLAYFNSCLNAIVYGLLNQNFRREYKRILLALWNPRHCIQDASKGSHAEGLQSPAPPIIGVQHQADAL

[2] = target: Melatonin receptor type 1A (Homo sapiens, UniProt P48039); assay: Inhibitory concentration against Melatonin receptor type 1A
Sequence of Melatonin receptor type 1A (P48039 whole entry): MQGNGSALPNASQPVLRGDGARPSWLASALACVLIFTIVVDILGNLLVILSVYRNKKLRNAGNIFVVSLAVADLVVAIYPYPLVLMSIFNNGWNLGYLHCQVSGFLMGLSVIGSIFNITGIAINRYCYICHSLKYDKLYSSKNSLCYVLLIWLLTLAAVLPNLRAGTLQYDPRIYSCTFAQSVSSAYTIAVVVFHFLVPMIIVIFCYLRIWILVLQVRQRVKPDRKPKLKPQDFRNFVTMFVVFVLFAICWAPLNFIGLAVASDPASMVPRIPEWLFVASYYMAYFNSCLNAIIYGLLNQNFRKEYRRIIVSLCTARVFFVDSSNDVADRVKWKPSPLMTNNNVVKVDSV

IC50 [1] [µM]	IC50 [2] [µM]	Structure (SMILES)
0.0099	0.621	COc1cc2c(cc1OC)C(CC(c1ccccc1)c1ccccc1)N(C=O)CC2 (stereo unspecified)
0.37		COc1cc2c(cc1OC)C(CC(c1ccccc1)c1ccccc1)N(C(=O)C1CCCCC1)CC2 (stereo unspecified)
0.045	> 1	COc1cc2c(c(OC)c1)C(CC(c1ccccc1)c1ccccc1)N(C(C)=O)CC2 (stereo unspecified)
0.22		COc1cc2c(cc1OC)C(CCc1ccccc1)N(C(=O)C1CCCCC1)CC2 (stereo unspecified)
0.0097	> 1	COc1cc2c(cc1OC)C(CC(c1ccccc1)c1ccccc1)N(C(C)=O)CC2 (stereo unspecified)
> 1	> 1	COc1ccc2c(c1OC)CCN(C(C)=O)C2CC(c1ccccc1)c1ccccc1 (stereo unspecified)
> 1	> 1	CC(=O)N1CCc2ccccc2C1CC(c1ccccc1)c1ccccc1 (stereo unspecified)
0.024	0.23	COc1cc2c(cc1Br)CCN(C(C)=O)C2CC(c1ccccc1)c1ccccc1 (stereo unspecified)
0.079	> 1	CCCC(=O)N1CCc2cc(OC)c(OC)cc2C1CC(c1ccccc1)c1ccccc1 (stereo unspecified)
0.4		CCCCCCC(=O)N1CCc2cc(OC)c(OC)cc2C1CC(c1ccccc1)c1ccccc1 (stereo unspecified)
0.1	> 1	COc1cc2c(cc1OC)C(CC(c1ccccc1)c1ccccc1)N(C(=O)C(F)(F)F)CC2 (stereo unspecified)
0.062	> 1	CCC(=O)N1CCc2cc(OC)c(OC)cc2C1CC(c1ccccc1)c1ccccc1 (stereo unspecified)
0.27	> 1	COc1ccc2c(c1)CCN(C(C)=O)C2CC(c1ccccc1)c1ccccc1 (stereo unspecified)
0.12	> 1	COc1cc2c(cc1OC)C(CC(c1ccccc1)c1ccccc1)N(C(=O)c1ccccc1)CC2 (stereo unspecified)
0.16	> 1	COc1cc2c(cc1OC)C(CCc1ccccc1)N(C(N)=O)CC2 (stereo unspecified)
0.0055	0.512	COc1ccc2c(c1)C(CC(c1ccccc1)c1ccccc1)N(C(C)=O)CC2 (stereo unspecified)
> 1	> 1	CC(=O)N1CCc2c(ccc3c2CCO3)C1CC(c1ccccc1)c1ccccc1 (stereo unspecified)
0.81		COc1cc2c(cc1OC)C(CC(c1ccccc1)c1ccccc1)N(C(=O)c1ccc(C(F)(F)F)cc1)CC2 (stereo unspecified)
0.28		CCCCCC(=O)N1CCc2cc(OC)c(OC)cc2C1CC(c1ccccc1)c1ccccc1 (stereo unspecified)
0.24		COc1cc2c(cc1OC)C(CC(c1ccccc1)c1ccccc1)N(C(=O)C1CCC1)CC2 (stereo in doubt; 1m)
0.03	> 1	COc1cc2c(cc1OC)C(CC(c1ccccc1)c1ccccc1)N(C(N)=O)CC2 (stereo unspecified)
1		COc1cc2c(cc1OC)C(CCc1ccccc1)N(C(=O)c1ccc(C(F)(F)F)cc1)CC2 (stereo unspecified)
> 1	> 1	COc1cccc2c1CCN(C(C)=O)C2CC(c1ccccc1)c1ccccc1 (stereo unspecified)
0.31		COc1cc2c(cc1OC)C(CC(c1ccccc1)c1ccccc1)N(C(=O)C1CCC1)CC2 (stereo in doubt; 1j)
0.024		COc1cc2c(cc1OC)C(CCc1ccccc1)N(C(=O)C1CCC1)CC2 (stereo unspecified)
0.14	> 1	CC(=O)N1CCc2cc(F)ccc2C1CC(c1ccccc1)c1ccccc1 (stereo unspecified)
0.022	0.673	COC(=O)N1CCc2cc(OC)c(OC)cc2C1CC(c1ccccc1)c1ccccc1 (stereo unspecified)
0.06	> 1	CNC(=O)N1CCc2cc(OC)c(OC)cc2C1CC(c1ccccc1)c1ccccc1 (stereo unspecified)
0.076	> 1	COc1cc2c(cc1OC)C(CCc1ccccc1)N(C(C)=O)CC2 (stereo unspecified)
0.083	> 1	COc1cc2c(cc1OC)C(CCc1ccccc1)N(C=O)CC2 (stereo unspecified)
